According to PubChem BioAssay (NCI):
Where “and” joins values, the source holds several entries; their conditions need not be identical. Identical values can stand only once.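 Interpolation was linear, between the two tested concentrations surrounding the appropriate level; five concentrations were tested over 48 hours in 96-well plates. GI50: concentration for 50% inhibition of growth. TGI is the concentration that stops growth completely.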

Legend:
Experiment in all cases: growth of human tumour cells (NCI), 48 h
RXF 393 renal = tested on: RXF 393 renal
A549 NSCLC = tested on: A549 NSCLC
ACHN renal = tested on: ACHN renal
MCF7 breast = tested on: MCF7 breast
NCI-H226 lung = tested on: NCI-H226 lung
HOP-62 NSCLC = tested on: HOP-62 NSCLC
HCT-116 colon = tested on: HCT-116 colon
UACC-62 melanoma = tested on: UACC-62 melanoma
SK-OV-3 ovarian = tested on: SK-OV-3 ovarian
OVCAR-3 ovarian = tested on: OVCAR-3 ovarian

Row | SMILES | GI50 (RXF 393 renal) [nM] | TGI (RXF 393 renal) | GI50 (A549 NSCLC) | TGI (A549 NSCLC) | GI50 (ACHN renal) | TGI (ACHN renal) | GI50 (MCF7 breast) [nM] | TGI (MCF7 breast) [µM] | GI50 (NCI-H226 lung) [µM] | TGI (NCI-H226 lung) [µM] | GI50 (HOP-62 NSCLC) | TGI (HOP-62 NSCLC) | GI50 (HCT-116 colon) | TGI (HCT-116 colon) | GI50 (UACC-62 melanoma) | TGI (UACC-62 melanoma) | GI50 (SK-OV-3 ovarian) [µM] | TGI (SK-OV-3 ovarian) [µM] | GI50 (OVCAR-3 ovarian) [nM] | TGI (OVCAR-3 ovarian) [µM]
1 | CO/N=C(\COc1ccc2c(c1)oc(=O)c1cc(OC)ccc12)c1ccc(F)cc1 | 35100 | > 100 µM | 26300 nM | 94.8 µM | 16800 nM | 32.1 µM | 34700 | > 100 | 38.1 | > 100 | 16400 nM | 34.1 µM | 14900 nM | 41.2 µM | 21500 nM | 73.9 µM | 48.5 | > 100 | 16700 | 34.2
2 | O=C1/C(=C/c2ccc([N+](=O)[O-])o2)Oc2ccccc21 | 1610 | 3.24 µM | 3230 nM | 12.3 µM | 895 nM | 2.17 µM | 827 | 3.11 | 1.94 | 4.98 | 2220 nM | 6.42 µM | 332 nM | 1.36 µM | 1470 nM | 2.93 µM | 6.4 | 18.2 | 1230 | 2.62
3 | O=C(N/N=c1/ccoc2cccnc12)N1CCN(c2ncccn2)CC1 | 1090 | 4.03 µM | 324 nM | 9.81 µM | 14.5 nM | 13.2 µM | < 10 | 11.9 |  | 2.56 | 43.6 nM | 7.42 µM | < 10 nM | 2.25 µM | 457 nM | 5.12 µM | 0.194 | 4.55 | < 10 | 4.46
4 | C=C(C)[C@@H]1CC[C@]2(C(=O)O)CC[C@]3(C)[C@H](CC[C@@H]4[C@@]5(C)C[C@@H](CC#Cc6ccc(Br)cc6)C(=O)C(C)(C)[C@@H]5CC[C@]43C)[C@@H]12 | 5500 | 21.8 µM | 2800 nM | > 100 µM | 13500 nM | > 100 µM | 4940 | > 100 | 24.2 | > 100 | 12400 nM | 38.4 µM | 4340 nM | 83.3 µM | 2690 nM | 8.34 µM | 20.2 | > 100 | 4730 | > 100
5 | CNc1cccnc1/C=N/NC(N)=S |  | > 10 µM |  | 9.91 µM |  | 1.76 µM |  | > 10 |  | > 10 |  | > 8.19 µM |  | > 8.26 µM |  | 3.07 µM |  | > 10 |  | > 8.6
6 | COc1ccc2c(c1)C(=O)/C(=C/c1ccc([N+](=O)[O-])s1)O2 | 284 | 0.926 µM | 1060 nM | 4.07 µM | 263 nM | 0.722 µM | 344 | > 100 | 1.91 | 4.81 | 1070 nM | 3.47 µM | 204 nM | 0.401 µM | 311 nM | 1.16 µM | 2.68 | 7.77 | 252 | 0.548
7 | COc1cc(OC)c2cc(C(=O)O)c(=O)oc2c1 | > 100000 | > 100 µM | > 100000 nM | > 100 µM | > 100000 nM | > 100 µM | > 100000 | > 100 | > 100 | > 100 | > 100000 nM | > 100 µM | > 100000 nM | > 100 µM | > 71800 nM | > 100 µM | > 100 | > 100 | > 100000 | > 100
8 | CS(=O)(=O)Nc1cccc(-c2ccc3c(NC(=O)C4CC4)n[nH]c3c2)c1 | 1280 | > 25 µM | 10900 nM | > 25 µM | 12700 nM | > 25 µM | 794 | > 9.93 | 2.59 | > 25 | 1160 nM | > 21.5 µM | 1510 nM | > 25 µM | 1030 nM | > 25 µM | 3.92 | 15.7 | 641 | 1.96
9 | CC(C)=CCc1ccc(O)c(=O)cc1C(C)C | 1550 | 17.4 µM | 656 nM | > 100 µM | 484 nM | > 100 µM | 501 | > 100 | 2.37 | > 100 | 685 nM | > 100 µM | 469 nM | > 100 µM | 493 nM | 4.38 µM | 0.903 | > 100 | 654 | > 83.4
10 | N#Cc1c(-c2ccc(Cl)cc2)c(-c2ccc(Cl)cc2)nn(CCOC(=O)CCC(=O)O)c1=O |  | 11.9 µM |  | > 88.6 µM |  | > 100 µM |  | > 62.3 |  | 1.42 |  | 34.8 µM |  | 4.01 µM |  | 47.7 µM |  | 30.8 |  | 0.853
11 | O=C1Nc2ccccc2/C1=C/c1ccccc1 |  | 22.9 µM |  | 90.7 µM |  | > 100 µM |  | 23.7 |  | 37.4 |  | 38.5 µM |  | 27 µM |  | 30.7 µM |  | 98.3 |  | 33.7
12 | O=c1oc2ccc(F)cc2c(=O)n1-c1ccc(Cl)cc1F | 974 | 4.48 µM | 2170 nM | > 100 µM | 700 nM | 11.8 µM | 1950 | > 29 | 1.22 | 4.91 | 1570 nM | 6.53 µM | 563 nM | 2.82 µM | 330 nM | 1.56 µM | 0.584 | 2.58 | 550 | 12.5
13 | CC1CC(C)/C(=N/NC(N)=O)C(C(O)CC2CCC(=O)NC2=O)C1 (stereo not given) | 3210 | 31.7 µM | 2360 nM | 56.7 µM | 1320 nM | > 100 µM | 3920 | > 100 | 4.69 | > 100 | 2990 nM | > 100 µM | 3040 nM | > 100 µM | 2790 nM | > 100 µM | 4.08 | > 100 | 5540 | 48.1
14 | O=C(Nc1cccnc1)c1cccc([N+](=O)[O-])c1 | > 100000 | > 100 µM | > 100000 nM | > 100 µM | > 100000 nM | > 100 µM | > 100000 | > 100 | > 100 | > 100 | > 100000 nM | > 100 µM | > 100000 nM | > 100 µM | > 100000 nM | > 100 µM | > 100 | > 100 | > 100000 | > 100
15 | c1ccc2c(Nc3ccc(Oc4ccc(Nc5c6ccccc6nc6ccccc56)cc4)cc3)c3ccccc3nc2c1 | 1560 | 3.87 µM and > 27.2 µM | 265 nM and 227 nM | 0.792 µM and 0.54 µM | 30.9 nM and 133 nM | 0.101 µM and 0.26 µM | 176 |  |  | 3.81 | 301 nM and 1740 nM | 1.09 µM and 3.12 µM | 155 nM and 32.5 nM | 0.289 µM and 0.117 µM | 1540 nM and 182 nM | 3.02 µM and 0.36 µM |  | 4.21 |  | 0.366
16 | CC(C)=CC(O)C/C(C)=C/CC/C(C)=C/CCC1(C)C(CCCO)/C(=C(/C)C=O)CCC1(C)O (stereo not given) |  | 90.6 µM |  | > 100 µM |  | 43.6 µM |  | 79.2 |  | > 100 |  | 88.6 µM |  | > 100 µM |  | > 100 µM |  | > 100 |  | > 100
17 | O=C(NCC(=O)N1CC[C@H](NC2CCC(O)(c3ccc(-c4ncccn4)cn3)CC2)C1)c1cccc(C(F)(F)F)c1 (stereo not given in full) | 61700 | > 100 µM | > 100000 nM | > 100 µM | > 100000 nM | > 100 µM | 41800 | > 100 | > 100 | > 100 | 95100 nM | > 100 µM | 36400 nM | > 100 µM | > 100000 nM | > 100 µM | > 100 | > 100 | 94900 | > 100
18 | O=c1[nH]ccc2nc(-c3ccc(CN4CCC(c5nc(-c6ccccn6)n[nH]5)CC4)cc3)c(-c3ccccc3)cc12 | 272 | 4.73 µM | 16200 nM | > 100 µM | 21200 nM | > 100 µM | 282 | 33.2 | 19 | > 100 | 27800 nM | > 100 µM | 17200 nM | > 92.7 µM | 16300 nM | > 86.6 µM | 0.124 | > 100 | 904 | > 66.3
19 | COc1cc(C2CC(c3ccc(Nc4ccnc5cc(Cl)ccc45)cc3)=NN2C=O)cc(OC)c1OC (stereo not given) | 2220 | 8.01 µM | 6900 nM | > 100 µM | 3240 nM | 10.6 µM | 3230 | > 100 | 34.5 | > 100 | 4130 nM | 20.8 µM | 3210 nM | 9.61 µM | 2200 nM | 6.87 µM | 3.36 | 10.9 | 1910 | 3.4
20 | Cn1ccnc1C(=O)/C=C/c1ccc(C(=O)Nc2ccccc2O)cc1 | 1620 | 3.41 µM | 3030 nM | 13.6 µM | 1990 nM | 4.01 µM | 1770 | 6.51 | 2.35 | 7.8 | 4600 nM | 15.1 µM | 866 nM | 2.64 µM | 1930 nM | 5.01 µM | 4.13 | 14.5 | 2320 | 6.37
21 | COc1ccc(N(C)c2nc(Cl)nc3ccn(C)c23)cc1 | < 10 | > 100 µM | < 10 nM | > 100 µM | < 10 nM | > 100 µM | < 10 | > 100 | > 100 | > 100 | < 10 nM | > 100 µM | < 10 nM | > 100 µM | < 10 nM | > 100 µM | < 0.01 | > 100 | < 10 | > 100
